Measurements reported in publication PMC7738508, “A therapeutic combination of two small molecule toxin inhibitors provides broad preclinical efficacy against viper snakebite” (Nature Communications, 2020).
Values joined by “and” are separate entries in the source; they are usually repeats but may differ in a detail not shown here. Equal values may be shown once. Read-outs that look alike come from different tables or passages of the source.

Tests used:
[1] = system: Echis ocellatus venom SVMP activity; experiment: fluorogenic SVMP assay; type: biochemical; settings: independent repeats
Experimental: (§1) The SVMP assay measuring metalloproteinase activity and the plasma assay measuring coagulation in the presence or absence of venoms and inhibitors were performed as previously described. The SVMP assay kinetically measured cleavage of a quenched fluorogenic substrate (ES010, R&D Biosystems) by venom in the presence or absence of inhibitors.
(§2) Briefly, 10 µl of the substrate (supplied as a 6.2 mM stock) was used per 5 ml reaction buffer (150 mM NaCl, 50 mM Tris-Cl pH 7.5). Reactions consisted of 10 µl of venom ± inhibitors in PBS and 90 µl of substrate. Venoms were used at 1 µg/reaction and final inhibitor concentrations ranged from 150 µM to 150 nM. Samples were preincubated for 30 min at 37 °C and pipetted in triplicate into 384-well plates (Greiner). Thereafter, data was collected on an Omega FLUOstar (BMG Labtech) instrument at an excitation wavelength of 320 nm and emission wavelength of 405 nm at 25 °C for 1 h. The areas under the curve (AUCs) in the 0–40 min interval were calculated for each sample using MARS data analysis software v3.31 (BMG Labtech); this time point was chosen as the time where all fluorescence curves had reached a plateau (maximum fluorescence). For comparing venom-only samples, the means of at least three independent experimental runs for each condition, expressed as AUCs (n ≥ 3), were plotted at each inhibitor concentration with standard error of the mean (SEM). To determine inhibitor efficacy, the AUCs for each of the samples that consisted of venom + inhibitors were transformed and expressed as percentages of the venom-only sample (where the venom was 100%). The negative control (PBS-only) was also expressed relative to the venom, and the variation in background was presented as an interval delineated by the lowest and highest values in the PBS-only samples across concentrations and inhibitors for a specific venom.

[2] = system: Bitis arietans venom SVMP activity; experiment: fluorogenic SVMP assay; type: biochemical; settings: independent repeats
Experimental: as §1, §2

[3] = system: Bothrops asper venom SVMP activity; experiment: fluorogenic SVMP assay; type: biochemical; settings: independent repeats
Experimental: as §1, §2

[4] = system: Echis carinatus venom SVMP activity; experiment: fluorogenic SVMP assay; type: biochemical; settings: independent repeats
Experimental: as §1, §2

[5] = system: procoagulant activity of Bothrops asper venom (citrated bovine plasma); experiment: plasma clotting assay; type: biochemical; settings: Bothrops asper venom 100 ng, independent repeats
Experimental: (§3) We used a previously developed plasma clotting assay[35] to measure venom-induced coagulation. Briefly, 100 ng of each venom was incubated at 37 °C for 30 min in the presence or absence of inhibitors (150 µM to 150 nM final concentrations). The final reaction consisted of 10 µl venom ± inhibitors in PBS, 20 µl 20 mM CaCl2, and 20 µl citrated bovine plasma (VWR). The samples were pipetted in triplicate into 384-well plates, and absorbance monitored at 595 nm for 2 h at 25 °C on an Omega FLUOstar instrument. We calculated the maximum clotting velocity of each of the curves as per clot waveform analysis, by calculating the maximum of the first derivative. The means of at least three independent experimental runs for each condition were plotted at each inhibitor concentration with SEMs.

[6] = system: procoagulant activity of Echis ocellatus venom (citrated bovine plasma); experiment: plasma clotting assay; type: biochemical; settings: Echis ocellatus venom 100 ng, independent repeats
Experimental: as §3

[7] = system: coagulopathic activity of Daboia russelii venom (citrated bovine plasma); experiment: plasma clotting assay; type: biochemical; design: key to maximum clotting velocity: max of first derivative of A595 clot curve (max clotting velocity); settings: for maximum clotting velocity: Daboia russelii venom 100 ng, independent repeats
Experimental: as §3

[8] = system: SVMP bioactivity of the four active venoms (E. ocellatus, E. carinatus, B. asper, B. arietans); experiment: in vitro kinetic fluorogenic SVMP assay, viper venoms overall; type: biochemical
Experimental: as §1, §2

[9] = system: procoagulant activity of Echis carinatus venom (citrated bovine plasma); experiment: plasma clotting assay; type: biochemical; design: key: max of first derivative of A595 clot curve (max clotting velocity); settings: Echis carinatus venom 100 ng, independent repeats
Experimental: as §3

[10] = system: procoagulant activity of viper venoms (citrated bovine plasma); experiment: plasma clotting assay, viper venoms overall; type: biochemical; settings: range across all venoms; lower end of dimercaprol and marimastat ranges given as < 0.15; read-out: IC50, inhibition of procoagulant venom activity
Experimental: as §3

[11] = water solubility; type: physicochemical
[12] = cited from earlier work
[13] = system: E. ocellatus venom; experiment: in vivo preincubation model of envenoming (i.v.); design: species or system CD-1 mice
Experimental: All animal experiments were conducted using protocols approved by the Animal Welfare and Ethical Review Boards of the Liverpool School of Tropical Medicine and the University of Liverpool, and performed in specific pathogen-free conditions under licensed approval (PPL #4003718 and #P5846F90) of the UK Home Office and in accordance with the Animal [Scientific Procedures] Act 1986 and institutional guidance on animal care. All experimental animals (18–20 g [4–5 weeks old], male, CD-1 mice, Charles River, UK) were housed in groups of five with environmental enrichment, water and food ad libitum and their health monitored daily during acclimatization. The experimental design was based upon 3R-refined WHO-recommended protocols[28],[41], with animals randomized and observers being blinded to the experimental condition. The median lethal doses (venom LD50) used for E. ocellatus (Nigeria), E. carinatus (India), B. asper (Costa Rica), D. russelii (Sri Lanka) and B. arietans (Nigeria) venoms were previously determined[25],[41],[44],[45].
All experimental doses were prepared to a volume of 200 µl in PBS and incubated at 37 °C for 30 min prior to their intravenous injection via the tail vein. Animals were monitored for 6 h, and euthanized via rising concentrations of CO2 upon observation of previously defined humane end points that are predicators of lethality (e.g., seizure, pulmonary distress, paralysis, hemorrhage)[28]. Deaths, time of death, and survivors were recorded; where death/time of death actually represents the implementation of euthanasia based on defined humane end points.
For all experimental animals described above, blood samples were collected via cardiac puncture immediately post-euthanasia. Plasma was separated by centrifugation at 400 × g for 10 min and stored at −80 °C. We assessed the levels of thrombin-antithrombin complexes (TAT) and soluble thrombomodulin using mouse ELISA Kits (ab137994 and ab209880, Abcam), following the manufacturer’s protocol. All available plasma samples (some were unobtainable via cardiac puncture due to extensive internal hemorrhage) were assessed if the time of death within the group varied, whereas three samples were randomly chosen if the time of death was the same (e.g., either very rapid death within 2 min, or survival until the end of the experiment [360 min or 24 h]). The resulting data was plotted as the median of duplicate measurements for each animal and is presented with standard deviations (SDs).

[14] = system: pro- and anticoagulant fractions of D. russelii venom; experiment: nanofractionation with plasma coagulation assay; type: biochemical, Daboia russelii; settings: nanofractionated D. russelii venom; inhibitor 0.0064 to 20 µM
Experimental: Fifty microlitres of venom solution (D. russelii; 1 mg/ml) was injected into a Shimadzu LC-2010 system with nanofractionation in parallel. Separation was performed on a Waters XBridge reversed-phase C18 column (250 × 4.6 mm^2 column with 3.5 μm pore-size) at 30 °C. The total flow rate of the mobile phase solution was 0.5 ml/min with eluent A (98% H2O, 2% acetonitrile [ACN], 0.1% formic acid [FA]) and eluent B (98% ACN, 2% H2O, 0.1% FA). Liquid chromatography gradients consisted of a linear increase of mobile phase B from 0 to 50% in 20 min, followed by a linear increase to 90% B in 4 min, then isocratic at 90% B for 5 min, after which the percentage of mobile phase B was decreased from 90 to 0% in 1 min, followed by 10 min at 0% B to re-equilibrate. The effluent was split in a 1:9 ratio of which the 10% fraction was sent to a Shimadzu SPD-M20A prominence diode array detector and the 90% fraction was directed to a nanofractionation collector which dispensed the fractions into transparent 384-well plates (F-bottom, rounded square well, polystyrene, without lid, clear, non-sterile; Greiner Bio One, Alphen aan den Rijn, The Netherlands) at a resolution of 6 s/well. The collector used was either a commercially available FractioMate^TM nanofractionator (SPARK-Holland & VU, Netherlands, Emmen & Amsterdam) controlled by FractioMator software v1.0 (Spark-Holland, The Netherlands, Emmen) or a modified Gilson 235P autosampler controlled by in-house written software Ariadne v1.8 (VU Amsterdam). The well plates with venom fractions were then dried overnight in a Christ Rotational Vacuum Concentrator (RVC 2 − 33 CD plus, Zalm en Kipp, Breukelen, The Netherlands) equipped with a cooling trap, and maintained at −80 °C during operation. The freeze-dried plates were then stored at −80 °C prior to bioassaying.
The final assay concentrations of the inhibitors tested in the assay were 20, 4, 0.8, 0.16, 0.032, and 0.0064 µM. The plates were then incubated for 30 min at room temperature, and during this time bovine plasma (Sterile Filtered, Biowest, Nuaille, France) was defrosted in a water bath and centrifuged for 4 min at 805 × g prior to use. […] The plate was then read immediately for absorbance kinetically for 100 min at 595 nm at 25 °C using a Varioskan Flash Multimode Reader (Thermo Fisher Scientific, Ermelo, The Netherlands). The obtained results were normalized by dividing the slope measured in each well by the median of all slope values across the plate, and the processed coagulation chromatograms were plotted to visualize very fast coagulation, medium increased coagulation and anticoagulation, as previously described.

OCC(S)CS (stereo not drawn) [dimercaprol, 2,3-dimercapto-1-propanol]
SVMP activity, percentage of the venom-only sample ([1]; inhibitor 15 µM): 17.6103% and 18.1155% and 16.6523%
SVMP activity, percentage of the venom-only sample ([1]; inhibitor 150 µM): 15.563% and 16.8718% and 16.6432%
SVMP activity, percentage of the venom-only sample ([2]; inhibitor 15 µM): 16.3406% and 15.4164% and 15.5101%
SVMP activity, percentage of the venom-only sample ([2]; inhibitor 150 µM): 15.3818% and 14.876% and 14.901%
SVMP activity, percentage of the venom-only sample ([3]; inhibitor 15 µM): 36.4776% and 36.4971% and 29.4073%
SVMP activity, percentage of the venom-only sample ([3]; inhibitor 150 µM): 26.9201% and 36.0411% and 27.8434%
SVMP activity, percentage of the venom-only sample ([4]; inhibitor 15 µM): 11.4563% and 14.5818% and 10.6976%
SVMP activity, percentage of the venom-only sample ([4]; inhibitor 150 µM): 11.223% and 13.9151% and 10.3819%
maximum clotting velocity ([5]; inhibitor 15 µM): 0.02441 and 0.02559 and 0.02164
maximum clotting velocity ([5]; inhibitor 150 µM): 0.02412 and 0.03441 and 0.03148
maximum clotting velocity ([6]; inhibitor 15 µM): 0.031 and 0.039 and 0.025
maximum clotting velocity ([6]; inhibitor 150 µM): 0.038 and 0.0465 and 0.041
maximum clotting velocity ([7]; inhibitor 15 µM): 0.02868 and 0.02941 and 0.02393
maximum clotting velocity ([7]; inhibitor 150 µM): 0.007941 and 0.0123
lowest concentration generally effective / required to fully inhibit SVMP activities ([8]; across the active venoms): 1.5 µM
IC50 ([8]; range across the active venoms, read-out: IC50s, inhibition of venom SVMP activity): 20 to 400 nM
maximum clotting velocity ([9]; inhibitor 15 µM): 0.039 and 0.037 and 0.04491
maximum clotting velocity ([9]; inhibitor 150 µM): 0.03967 and 0.03833 and 0.05167
IC50 [10]: 150 to 3700 nM

CNC(=O)[C@H](Cc1ccccc1)NC(=O)[C@H](CC(C)C)[C@H](CSc1cccs1)C(=O)NO [batimastat]
water solubility (words) [11]: water insolubility
water solubility (words) ([11]; listed as Batimastat): low water solubility
effect on clotting after complete neutralization of SVMP activity ([7]; D. russelii venom, high doses): revealed clear venom anticoagulant effects
maximum clotting velocity ([7]; inhibitor 15 µM): 0.01373 and 0.01942 and 0.02131
neutralization of SVMP bioactivity ([8]; four active venoms, marimastat 150 nM to 150 µM, batimastat […] and 150 nM): equivalent efficacy to marimastat
maximum clotting velocity ([9]; inhibitor 15 µM): 0.03565 and 0.03449
maximum clotting velocity ([9]; inhibitor 150 µM): 0.0287 and 0.02696 and 0.02803
IC50 [10]: < 150 nM

CCc1c(C(=O)C(N)=O)c2c(OCC(=O)O)cccc2n1Cc1ccccc1 [varespladib]
water solubility (words) [11]: water insolubility
maximum clotting velocity ([7]; inhibitor 15 µM): 0.09594 and 0.09681 and 0.08696
maximum clotting velocity ([7]; inhibitor 150 µM): 0.1113 and 0.1116 and 0.1203
tolerability ([12]; Phase 1 and 2): well tolerated
risk of major adverse cardiovascular events ([12]; Phase 2B, same daily dose, >300 patients for >6 months): no greater risk of major adverse cardiovascular events
risk of myocardial infarction vs placebo ([12]; Phase 3, acute coronary syndrome patients, 500 mg oral daily): greater risk of myocardial infarction than those receiving placebo
oral bioavailability [12]: good oral bioavailability
half-life ([12]; delivered by iv infusion): 5 h
protection against venom-induced lethality ([13]; 45 µg E. ocellatus venom preincubated with 60 µg of each drug, i.v., 6 h): failed to prevent lethality over the full experimental time course
thrombin-antithrombin (TAT) levels, range in group ([13]; plasma after euthanasia, E. ocellatus venom + 60 µg of each drug, venom-only mean 1127.3, normal mice 10.2–15.9): 472.7 to 649.9 ng/mL
inhibition of anticoagulant venom fractions [14]: effectively inhibited
inhibition of procoagulant venom fractions [14]: some inhibitory effect against procoagulant venom toxins, but only at very high doses (20 µM)
